From patent EP1023836A1, “Compositions and methods for inhibiting the growth of fungi” (UNILEVER N.V., priority 1999, dated 2000)

Tests used:
Format in all cases: cell-based
[1] = tested on: Saccharomyces cerevisiae wild type strain SU-50; experiment: Growth curves / growth inhibition of yeast strain SU-50; details: for effect on growth: comparative sugar 25 mM with 25 µM MB21, strain SU50, 100 cells per ml, versus reference (no sugar, no MMAS) and MB21 alone (Fig. 5a)
Description: (§1) For examples 2, and 4-9 grow-curves were recorded at 25°C using a microbiology growth reader (Bioscreen C, ex Labsystems). For example 3, growth curve was determined as turbidity, measured by hand at a wave length of 660 nm (OD 660).
(§2) • a) Saccharomyces cerevisiae strain SU52-pUR 5801 was grown in YNB and YEPD media, at 30°C with shaking at 225 rpm in an orbital incubator until a OD (660 nm) between 5 and 6 was reached. In parallel experiments several concentrations of β-gentiobiose or pustulan fragments were included in the media. After cultivation, the media were separated from the cells by centrifugation (10.000 x g for 15 mm at 4°C). The media were then filtered using 0.22 µM filters. Secretion of α-galactosidase-CWP2p was assessed by measuring α-galactosidase enzyme activity in the media (see further on). • b) Growth curves were obtained with the strain SU-50. The cells (about 10 per ml) were cultured in YEPD at 25°C in the presence or absence of β-gentiobiose or pustulan fragments and MB-21, by using a 24 well plate at room temperature with continuous shaking on a micro-titre plate shaker (mark 4) or a microbiology growth reader (Bioscreen C).
(§3) Three YEPD media were prepared, one without MB21, the other YEPD media contained 10 µM MB21 and 20 µM MB21, respectively. To these media β-gentiobiose was added in concentrations of 0, 50, 100 and 200 mM. The yeast strain SU50 was inoculated in these media in a concentration of 10 cells per ml, and cultivated in a 24 well plate at 25°C. Samples were taken from a 24 well plate at regular time intervals, diluted sixty times with distilled water and measured at 660 nm to construct the growth curves. […] However, if the sub-lethal concentrations of MB21 and β-gentiobiose are combined, a clear reduction in growth potential of SU50 (10 cells per ml) was observed.
This example illustrates a relationship between the length of the β-(1,6)-glucan fragments and their effectiveness in competition. When the same concentration of MB21 (20 µM) was used [about 50 cells per ml] was used, a glucan fragment was obtained from pustulan with an average MW of 686, which was at least hundred times as effective as β-gentiobiose, as shown in Fig. 4.
(§4) In this example, three strains are grown in various media in the fashion of example 3, with the exception of being inoculated in the media in a concentration of 100 cells per ml. The sugars used are all comparatives: laminaribiose (β-1,3)-linked D-glucose), sucrose (having a 1,2 link), and sorbitol.
In this example, strain SU 50 was grown three media (see table 2) in the fashion of example 3, with the exception of being inoculated in the media in a concentration of 100 cells per ml.

[2] = tested on: Saccharomyces cerevisiae strain SU52-pUR5801; experiment: Cell wall protein release test (secretion of α-galactosidase-CWP2p fusion protein, α-galactosidase activity in the medium); details: β-gentiobiose 10, 50 and 100 mM in YEPD with 5% galactose, 30 °C, 18 hours; linear up to 100 mM (Fig. 1)
Description: as §2
α-Galactosidase activity was determined at 37°C using p-nitrophenyl α-D-galactopyranoside (PNPG) as substrate in 0.1 M potassium acetate buffer, pH 5.0. […] The extinction of the liberated p-nitrophenolate was recorded at 405 nm.
β-Gentiobiose was dissolved in YEPD media supplemented with 5% galactose, in concentrations of 10, 50 and 100 mM respectively. […] The enzyme activity of the fusion protein CWP2-α-galactosidase was measured as described in the α-galactosidase assay. […]

[3] = tested on: Zygosaccharomyces bailii ZB (NCYC 563); experiment: Growth curves / growth inhibition of yeast strain ZB; details: comparative sugar 200 mM with 6 µM MB21, strain ZB, 100 cells per ml; versus reference and MB21 alone (Fig. 5b)
Description: as §1, §3, §4
In this example, strain ZB was grown three media (see table 3) in the fashion of example 3, with the exception of being inoculated in the media in a concentration of 100 cells per ml.

[4] = tested on: Zygosaccharomyces bailii G1; experiment: Growth curves / growth inhibition of yeast strain G1; details: comparative sugar 200 mM with 6 µM MB21, strain G1, 100 cells per ml; versus reference and MB21 alone (Fig. 5c)
Description: as §1, §3, §4
In this example, strain G1 was grown three media (see table 4) in the fashion of example 3, with the exception of being inoculated in the media in a concentration of 100 cells per ml. […]

| Compound | growth of SU-50 ([1]; β-gentiobiose as such (0, 50, 100, 200 mM), no MB21, 10 cells per ml, 25°C, OD 660 (Fig. 3)) | release of the fusion protein α-galactosidase-CW2p from the cell wall [2] | effect on growth [1] | effect on growth [3] | effect on growth [4] |
| --- | --- | --- | --- | --- | --- |
| OC[C@H]1O[C@@H](OC[C@H]2O[C@@H](O)[C@H](O)[C@@H](O)[C@@H]2O)[C@H](O)[C@@H](O)[C@@H]1O [β-Gentiobiose, 6-O-β-D-glucopyranosyl-β-D-glucose] | no influence | concentration dependent | – | – | – |
| OC[C@@H](O)[C@@H](O)[C@H](O)[C@@H](O)CO [sorbitol] | – | – | stimulating effect | stimulating effect | stimulating effect |
| OC[C@H]1O[C@@H](O[C@H]2[C@H](O)[C@@H](CO)OC(O)[C@@H]2O)[C@H](O)[C@@H](O)[C@@H]1O (stereo partly drawn) [laminaribiose] | – | – | stimulating effect | – | – |
| OC[C@H]1O[C@@](CO)(O[C@H]2O[C@H](CO)[C@@H](O)[C@H](O)[C@H]2O)[C@@H](O)[C@@H]1O [sucrose] | – | – | stimulating effect | stimulating effect | stimulating effect |
